Laboratory results from patent US7504243B2, “Methods for the production of biliverdin” (The United States of America as represented by the …, priority 2004, dated 2009).

Test system: CaHMX1 promoter
Assay: Renilla luciferase reporter driven by the CaHMX1 promoter in knock-in strain CAMP Ki-29
Format: cell-based, Candida albicans
Details: for Luciferase Activity: strain Ki-29, iron-replete medium, 30° C., 15 min, 1 mg/ml protein, mean±S.D. of two experiments, light units per 5×10^7 cells/assay point
Description: and cloning into pCR-BluntII TOPO (Invitrogen). The inserted fragment is then excised with SstI and PstI and cloned into plasmid pCRW3 (Srikantha, T. et al. (1996) “THE SEA PANSY RENILLA RENIFORMIS LUCIFERASE SERVES AS A SENSITIVE BIOLUMINESCENT REPORTER FOR DIFFERENTIAL GENE EXPRESSION IN CANDIDA ALBICANS,” J. Bacteriol. 178:121-129) using similar sites resulting in plasmid pPt14. This plasmid was linearized at the unique KpnI site in the CaHMX1 promoter (see, FIG. 2, Panel D) to enable recombination into the CaHMX1 genomic site in the C. albicans strain Red 3/6 (Srikantha, T. et al. (1996) “THE SEA PANSY RENILLA RENIFORMIS LUCIFERASE SERVES AS A SENSITIVE BIOLUMINESCENT REPORTER FOR DIFFERENTIAL GENE EXPRESSION IN CANDIDA ALBICANS,” J. Bacteriol. 178:121-129). […] This knock-in procedure is desirable because the reporter plasmid pPt14 is not functional when integrated into the Ade2 locus when introduced as an episome. The resulting strain, CAMP Ki-29, is used for all reporter assays discussed herein. The correct insertion sites of the preceding constructs in the genomes of strains CAMP 50 and CAMP Ki-29 are verified by Southern blotting.
Luciferase Assays—Reporter assays use C. albicans cells that are grown at 30° C. in minimal YNB medium with ammonium sulfate and 2% glucose. 5×10^7 cells were harvested, cell extracts were obtained by glass bead lysis (Srikantha, T. et al. (1996) “THE SEA PANSY RENILLA RENIFORMIS LUCIFERASE SERVES AS A SENSITIVE BIOLUMINESCENT REPORTER FOR DIFFERENTIAL GENE EXPRESSION IN CANDIDA ALBICANS,” J. Bacteriol. 178:121-129), and luminescence is determined using coelenterazine as a substrate (Promega). Luciferase activity is defined as the number of light units using 5×10^7 cells/assay point in 200 μl of lysis buffer using a 5-μl volume for light measurement. To assess regulation of the promoter by iron, the ferrous iron chelator ferrozine is added to cell cultures in the presence of FAS to buffer iron concentrations as described (Philpott, C. C. et al. (1998) “CELL-CYCLE ARREST AND INHIBITION OF G1 CYCLIN TRANSLATION BY IRON IN AFT1-1^UP YEAST,” EMBO J. 17, 5026-5036) (see also, Chaney, R. L. (1988) “PLANTS CAN UTILIZE IRON FROM IRON-N,N′-DI-2 HYDROXYBENZOYLETHYLENEDIAMINE-N,N′-DIACETIC ACID, A FERRIC CHELATE WITH 1,000,000 GREATER FORMATION CONSTANT THAN IRON-EDDHA,” J. Plant Nutr. 11, 1033-1050). FAS added to 1 mM ferrozine at 10, 100, and 400 μM represents low, optimal, and high levels of iron, respectively.
To ensure that this induction is specific for Hb, several control proteins are tested for their ability to stimulate luciferase activity in strain Ki-29 (Table 1). […] Therefore, the iron in Hb is not essential for activity, but the native conformation of globin induced by porphyrin binding is required.

For “Apo-transferrin: control protein from Sigma”, the “Luciferase Activity” value was 64.4 ± 11.8.

In the case of Casein, the “Luciferase Activity” value is reported as 38.6 ± 8.1.

In the case of “CoPPIX-globin: The cobalt analog of Hb; cobalt protoporphyrin IX substituted for the heme in globin”, the “Luciferase Activity” value is reported as 161.7 ± 24.

In the case of Fetuin: control protein from Sigma, the “Luciferase Activity” value is reported as 59.3 ± 5.9.

For “Holo-transferrin: ferroprotein transferrin, control protein from Sigma”, the “Luciferase Activity” value was 20.7 ± 0.55.

In the case of hemin [reference compound], the “increase in activity over the iron-replete control when hemin is added to Hb combined with ferrozine” value (24 h, Hb 25 μM + ferrozine 100 μM + hemin 25 μM) is reported as 2.5 fold, the “increase of CaHMX1 promoter activity by hemin after 24 h” value (CAMP Ki-29 cells, hemin 25 μM, 24 h) is reported as “about 2 fold” and the “lag time before induction of promoter activity” value (iron-deficient medium, 25 μM hemin, extended time course) is reported as 3 h.
